This note sets out measurements from article PMC6985109, “Cellular apoptosis and necrosis as therapeutic targets for novel Eugenol Tosylate Congeners against Candida albicans” (Scientific Reports, 2020).

Series [1] deals with Candida albicans 4106. Nature of the series: Broth microdilution antifungal susceptibility (MIC/MFC). As to conditions: strain 4106, FLC resistant; for MIC: 37 °C, 24 h. It counts as cell-based. Here is the method:
(§1) In this study, 10 clinical Candida albicans isolates, comprising of 5 fluconazole susceptible and 5 fluconazole resistant, were used. C. albicans SC5314 was also used as a control laboratory strain. Clinical strains used in this study were stored at −80 °C supplemented with 20% glycerol in the Department of Clinical Microbiology and Infectious Diseases, University of the Witwatersrand, Johannesburg and were previously collected under the ethical clearance number M000402, obtained from the Human Research Ethics Committee, University of the Witwatersrand. For experimental purpose each strain from glycerol stock was recovered on Sabouraud Dextrose (SDA) agar plates at 37 °C for 24 h.
(§2) Minimum Inhibitory Concentration (MIC) and Minimum Fungicidal Concentrations (MFC) of all newly synthesized eugenol-tosylate congeners (ETC-1–ETC-7) against C. albicans strains were determined by broth microdilution assay in accordance with the approved guidelines described by Clinical and Laboratory Standards Institute (CLSI) guidelines M27-A[38]. The test compounds were prepared in 1% DMSO to a stock concentration of 8192 µg/ml. Two-fold dilutions of test compounds (100 µL) were prepared in 96-well flat-bottom microtiter plates, inoculated with 100 µl of inoculum (1 × 10^6 cells/mL) and incubated at 37 °C for 24 hours. In every set of experiment, positive control (fluconazole), negative vehicle control (1% DMSO) and culture control (media and cells only) were included. MIC’s were determined visibly as the lowest concentration of the test compounds that inhibited growth of test organism. To determine MFC, each well without visible growth was sub-cultured onto agar plates. Concentration in the first well with no growth on plate was taken as MFC. […] The experiment was performed in triplicate to validate the results.

Series [2] concerns Candida albicans 4122. The description is as above. In kind it is cell-based. As to conditions: strain 4122, FLC resistant; for MIC: 37 °C, 24 h. Here is the method:
as §1, §2

The test system of series [3] is Candida albicans 4135. The series is described as above. It counts as cell-based. The following applies: strain 4135, FLC resistant; for MIC: 37 °C, 24 h. On the procedure: as §1, §2
In series [4] the test system is Candida albicans 4175. The series is described as above. In kind it is cell-based. Here is the method:
as §1, §2

Series [5] has as its system Candida albicans 4179. The description is as above. As to conditions: strain 4179, FLC susceptible; for MIC: 37 °C, 24 h. It counts as cell-based. On the procedure:
as §1, §2

The subject of series [6] is Candida albicans 4180. The series is described as above. In kind it is cell-based. As to conditions: strain 4180, FLC susceptible; for MIC: 37 °C, 24 h. On the procedure:
as §1, §2

The test system of series [7] is Candida albicans 4324. Described as above. In kind it is cell-based. The following applies: strain 4324, FLC resistant; for MIC: 37 °C, 24 h. Here is the method: as §1, §2
Series [8] has as its system Candida albicans 4563. Described as above. It counts as cell-based. The following applies: strain 4563, FLC susceptible; for MIC: 37 °C, 24 h. Here is the method:
as §1, §2

The subject of series [9] is Candida albicans 4576. The series is described as above. It counts as cell-based. As to conditions: strain 4576, FLC susceptible; for MIC: 37 °C, 24 h. Here is the method:
as §1, §2

The subject of series [10] is Candida albicans 5112. The series is described as above. As to conditions: strain 5112, FLC resistant; for MIC: 37 °C, 24 h. It counts as cell-based. Here is the method:
as §1, §2

The test system of series [11] is Candida albicans SC5314. The description is as above. In kind it is cell-based. As to conditions: SC5314, FLC susceptible; for MIC: 37 °C, 24 h. Here is the method:
as §1, §2

In series [12] the test system is fluconazole susceptible and resistant C. albicans strains. In words: Broth microdilution antifungal susceptibility, ranges over strains. In kind it is cell-based. As to conditions: Candida albicans. On the procedure: as §1, §2
Series [13] concerns C. albicans 4175, C. albicans 5112 and C. albicans SC5314. Nature of the series: FITC annexin V/PI staining flow cytometry, ranges over three strains. In kind it is cell-based, Candida albicans. The following applies: 250 μmol/L, positive control. On the procedure: (§3) To study the effect of test compounds on apoptotic markers protoplasts were prepared as described previously, with modifications. Briefly, mid-exponential phase cells were harvested and exposed to various concentrations of test compounds (0.5 × MIC, 1 × MIC and 2×MIC) for 3 h. The cells were then washed twice with protoplast buffer- I (1 M sorbitol, 50 mM tris base, 10 mM MgCl2 and 30 mM DTT) and incubated in the same buffer for 15 minutes at 25 °C, followed by centrifugation at 1500 rpm for 5 minutes. Supernatant was removed and cells were incubated with buffer- II (1 M sorbitol, 50 mM tris base, 10 mM MgCl2 and 1 mM DTT) supplemented with lyticase enzyme (≥1 µg/mL) used to digest the cell wall for 1 h at 25 °C. Buffer- II were removed by centrifugation and then cells were incubated with buffer- III (1 M sorbitol, 50 mM tris base and 10 mM MgCl2) for 20 minutes at room temperature. After the incubation cells were again centrifuged at 1500 rpm for 5 minutes and supernatant was discarded. Protoplasts then finally washed once with PBS and re-suspended in the same for further use. In each washing steps the volume of these protoplast buffers were 5 times to cell volume with pH 7.4.
This assay was used to identify early apoptosis by detecting movement of phosphatidylserine (PS) from the inner to the outer leaflet of plasma membrane. FITC annexin V Apoptosis Detection Kit I (BD Biosciences, CA, USA) was used according to the manufacturer’s instructions. Protoplasts of C. albicans cells treated with different concentrations of the test compounds, as mentioned in above section, were resuspended in 1X annexin V binding buffer ([…]) at a concentration of 1 × 10^6 cells per ml. To the 100 µl of this solution, 5 µl each of FITC annexin V and propidium iodide (PI) was added. Tubes were gently vortexed and incubated for 15 minutes at 25 °C in the dark. After incubation, 400 µl of 1X annexin V binding buffer was added to each tube and analyzed using the BD LSRFortessa Flow cytometer (Becton Dickinson, NJ, USA). The cell populations in four different quadrants of a quadrant dot plot were analyzed and interpreted as; Q1: necrosis (annexin V^−/PI^+), Q2: late apoptosis (annexin V^+/PI^+), Q3: early apoptosis (annexin V^+/PI^−) and Q4: viable cells (annexin V^−/PI^−), by using software FlowJo_V10.

For series [14] the test system is unchanged. In words: TUNEL assay for DNA damage. It counts as cell-based, Candida albicans. The following applies: 250 μmol/L, positive control. Here is the method: as §3, with “Protoplasts then finally washed once with PBS and re-suspended in the same for further use. In each washing steps the volume of these protoplast buffers were 5 times to cell volume with pH 7.4.” left out
TUNEL assay was used to detect the DNA damage, a hallmark for late stages of apoptosis. […] Slides were examined by fluorescence microscopy using Zeiss Laser Scanning Confocal Microscope (LSM) 780 (Carl Zeiss Microscopy, Jena, Germany) with an excitation wavelength of 495 nm and emission wavelength of 519 nm. […] Images were further analyzed by using software ImageJ.

The test system of series [15] is horse red blood cells. Nature of the series: Cytotoxicity by haemolytic assay. It counts as cell-based. Here is the method:
The cytotoxicity of the test compounds was determined on horse red blood cells (NHLS, Johannesburg, South Africa) by testing the haemolytic activity of these compounds using the method described previously, with some modifications. Briefly, in a sterile 15 ml falcon tube 5 ml of horse blood was centrifuged at 2000 × rpm for 10 minutes. The supernatant was discarded, and the cell pellet was washed three times with chilled PBS solution. The final pellet was used to yield a 10% RBC suspension with chilled PBS. The 10% suspension were further diluted to 1:10 in PBS, then 100 µl of this suspension was added to different concentration of test compounds (0.5 × MIC, 1 × MIC and 2 × MIC) in 1.5 ml tubes. The tubes were then incubated for 60 minutes at 37 °C followed by centrifugation at 2000 × rpm for 10 minutes. From each tube, 200 µl of the supernatant was transferred to a flat-bottomed 96-well microtiter plate and absorbance was monitored at 450 nm spectrophotometrically with an iMark microplate reader (Bio-Rad laboratories, CA, USA). Triton X-100 (1%) and PBS were used as positive and negative controls respectively. The percentage of haemolysis was calculated by the following equation: %haemolysis=A450oftestcompoundtreatedsample−A450ofbuffertreatedsample/A450of1%TritonX−100treatedsample−A450ofbuffertreatedsample×100%

Setting [16] is: Candida albicans, strain 4175, FLC susceptible.
Where [17] appears, read: Candida albicans, strain 4175, FLC susceptible, 37 °C, 24 h, read-out: MIC.
[18] abbreviates: over the tested C. albicans strains.

In brackets after ≈: the same amount, converted by molar mass. Read-outs that look alike come from different tables or passages of the source.

Take `C=CCc1ccc(OS(=O)(=O)c2ccccc2)c(OC)c1` [ETC-2, 2-methoxy-4-(prop-2-en-1-yl)-phenylbenzenesulfonate]: the MFC in series [1] amounted to 256 µg/mL (≈ 841 µM); in [2], 512 µg/mL (≈ 1680 µM); in [3], 512 µg/mL (≈ 1680 µM); in series [4] (setting [16]), 64 µg/mL (≈ 210 µM); in series [5], 256 µg/mL (≈ 841 µM); in series [6], 256 µg/mL (≈ 841 µM). For the same compound, the MFC in series [7] came to 256 µg/mL (≈ 841 µM); in series [8], 512 µg/mL (≈ 1680 µM); in series [9] it was 256 µg/mL (≈ 841 µM); in series [10] it was 512 µg/mL (≈ 1680 µM); in series [11], 64 µg/mL (≈ 210 µM). The MIC stood at 64 µg/mL (≈ 210 µM) in series [1]; 256 µg/mL (≈ 841 µM) in series [2]; 128 µg/mL (≈ 421 µM) in [3]; 32 µg/mL (≈ 105 µM) in series [4] (setting [17]); 128 µg/mL (≈ 421 µM) in [5]; 64 µg/mL (≈ 210 µM) in series [6]. Besides, the MIC turned out to be 128 µg/mL (≈ 421 µM) in [7]; 256 µg/mL (≈ 841 µM) in series [8]; 128 µg/mL (≈ 421 µM) in series [9]; 256 µg/mL (≈ 841 µM) in series [10]; 32 µg/mL (≈ 105 µM) in [11].

Take `C=CCc1ccc(O)c(OC)c1` [EUG, 2-methoxy-4-(prop-2-en-1-yl)phenol, reference compound]: the MFC in series [1], in series [2], in series [3], in series [4] (setting [16]), in [5] and in series [6] was 1000 µg/mL (≈ 6090 µM) each time. Moreover, the MFC in series [7], in [8], in [9], in [10], in [11] and in series [12] (setting [18]) was 1000 µg/mL (≈ 6090 µM) throughout. In addition, the MIC in [1], in series [2], in [3], in series [4] (setting [17]), in [5] and in [6] was 500 µg/mL (≈ 3040 µM) throughout. The MIC in series [7], in series [8], in [9], in [10], in series [11] and in series [12] (setting [18]) was 500 µg/mL (≈ 3040 µM) throughout.

`OC(Cn1cncn1)(Cn1cncn1)c1ccc(F)cc1F` [FLC, fluconazole, reference compound]: the MIC in series [1] came out at 8 µg/mL (≈ 26.1 µM); in [2], 32 µg/mL (≈ 104 µM); in series [3], 32 µg/mL (≈ 104 µM); in series [4] (Candida albicans, 4175, 24 h) it was 0.125 µg/mL (≈ 0.408 µM); in series [5], 0.25 µg/mL (≈ 0.816 µM); in [6], 0.25 µg/mL (≈ 0.816 µM). For the same compound, the MIC in [7] was 16 µg/mL (≈ 52.2 µM); in series [8], 0.25 µg/mL (≈ 0.816 µM); in series [9], 0.25 µg/mL (≈ 0.816 µM); in series [10], 64 µg/mL (≈ 209 µM); in series [11], 0.25 µg/mL (≈ 0.816 µM); in [12] (fluconazole resistant strains, range) it was 8 to 64 µg/mL (≈ 26.1 to 209 µM). This compound also came in with an MIC in [12] (fluconazole susceptible strains, range) of 0.125 to 0.25 µg/mL (≈ 0.408 to 0.816 µM).

For `OO` [H2O2, reference compound], in series [13], the early apoptosis is 32–33%, the late apoptosis is listed as 50–51% and the necrosis was 6–7%. In series [14], the “TUNEL green fluorescence (late apoptotic cells)” value is “increased green fluorescence”.

With Triton X-100 [reference compound], the lysis in series [15] was found to be 100%.
